# Results from paper PMC5534107, “Sensitization of ASIC3 by proteinase-activated receptor 2 signaling contributes to acidosis-induced nociception” (Journal of Neuroinflammation, 2017).
# Columns and labels:
# Assay type in all cases: cell-based, Chinese hamster
# [1] = test system: ASIC3 currents in CHO cells co-expressing ASIC3 and PAR2; assay: Whole-cell patch clamp of proton-gated currents (I pH 6.6) in CHO cells co-expressing ASIC3 and PAR2
# Procedure: (§1) ASIC3, ASIC1a, ASIC1b, ASIC2b, and PAR2 complementary DNAs (cDNAs) were used for heterologous expression in CHO cells as described previously (Wang et al., 2013). In brief, CHO cells were cultured at 37 °C in a humidified atmosphere of 5% CO2 and […] and passaged twice a week. Transient transfection of CHO cells was performed using HilyMax liposome transfection reagent (Dojindo Laboratories). CHO cells were maintained in F-12 Nutrient Mixture (added 1.176 g of NaHCO3/L medium) supplemented with 10% fetal bovine serum and 1% gluta-MAXTM-1 (100×; Invitrogen). When ASIC3 and PAR2 cDNAs were co-transfected, the ratio was kept at 1:1. All plasmids used contained, in addition to the desired ASIC3 cDNA, the coding sequence for enhanced green fluorescent protein to aid identification of transfected cells. Electrophysiological measurements were performed 24–48 h after transfection.
# Whole-cell patch clamp and voltage clamp recordings were carried out at room temperature (22–25 °C) using a MultiClamp-700B amplifier and Digidata-1440A A/D converter (Axon Instruments, CA, USA). Recording pipettes were pulled using a Sutter P-97 puller (Sutter Instruments, CA, USA). The micropipettes were filled with internal solution containing (mM) KCl 140, MgCl2 2.5, HEPES 10, EGTA 11, and ATP 5; its pH was adjusted to 7.2 with KOH, and osmolarity was adjusted to 310 mOsm/L with sucrose. Cells were bathed in an external solution containing (mM) NaCl 150, KCl 5, CaCl2 2.5, MgCl2 2, HEPES 10, D-glucose 10; its osmolarity was adjusted to 330 mOsm/L with sucrose and its pH to 7.4. The resistance of the recording pipette was in the range of 3–6 MΩ. A small patch of membrane underneath the tip of the pipette was aspirated to form a giga seal, and then, a negative pressure was applied to rupture it, thus establishing a whole-cell configuration. The series resistance was compensated for by 70–80%. The adjustment of capacitance compensation was also done before recording the membrane currents. The membrane voltage was maintained at −60 mV in all voltage clamp experiments unless otherwise specified. Current clamp recordings were obtained by switching to current clamp mode after a stable whole-cell configuration was formed in voltage clamp mode. Only cells with a stable resting membrane potential (more negative than −50 mV) were used in the study. Signals were sampled at 10 to 50 kHz and filtered at 2 to 10 kHz, and the data were stored in compatible PC computer for off-online analysis using the pCLAMP 10 acquisition software (Axon Instruments, CA, USA).
# Drugs purchased from Sigma and used in the experiments include hydrochloric acid, 2-furoyl-LIGRLO-NH2 (a PAR2-activating peptide (PAR2-AP)), trypsin, FSLLRY-NH2, APETx2, and capsazepine. Different pH values were configured with hydrochloric acid and external solution. All drugs were dissolved daily in the external solution just before use and held in a linear array of fused silica tubes (o.d./i.d. = 500 μm/200 μm) connected to a series of independent reservoirs. The application pipette tips were positioned ∼30 μm away from the recorded neurons. The application of each drug was driven by gravity and controlled by the corresponding valve, and rapid solution exchange could be achieved within about 100 ms by shifting the tubes horizontally with a PC-controlled micromanipulator. Cells were constantly bathed in normal external solution flowing from one tube connected to a larger reservoir between drug applications. In some experiments where GDP-β-S (Sigma), U-73122(Sigma), and GF109203X (RBI) were applied for intracellular dialysis through recording patch pipettes, they were dissolved in the internal solution before use. To ensure that the cell interior was perfused with the dialysis drug, there was at least a 30-min interval between the establishment of whole-cell access and the current measurement. […]
# [2] = test system: ASIC3 currents in CHO cells expressing alone ASIC3, but not expressing PAR2; assay: Whole-cell patch clamp, CHO cells expressing ASIC3 alone (no PAR2); settings: 10^−5 M; P > 0.1; n = 10
# Procedure: as §1
# (§2) Whole-cell patch clamp and voltage clamp recordings were carried out at room temperature (22–25 °C) using a MultiClamp-700B amplifier and Digidata-1440A A/D converter (Axon Instruments, CA, USA). […]
# (§3) Drugs purchased from Sigma and used in the experiments include hydrochloric acid, 2-furoyl-LIGRLO-NH2 (a PAR2-activating peptide (PAR2-AP)), trypsin, FSLLRY-NH2, APETx2, and capsazepine. […] The application pipette tips were positioned ∼30 μm away from the recorded neurons. […]
# [3] = test system: heteromeric ASIC2b+3 channels expressed with PAR2 in CHO cells; assay: Whole-cell patch clamp, heteromeric ASIC2b+3 channels expressed with PAR2 in CHO cells; settings: PAR2-AP 10^−5 M for 1 min; I pH 6.6; ASIC3:other subunit 1:3; n = 8
# Procedure: as §1, §2, §3
# [4] = test system: heteromeric ASIC1b+3 channels expressed with PAR2 in CHO cells; assay: Whole-cell patch clamp, heteromeric ASIC1b+3 channels expressed with PAR2 in CHO cells; settings: PAR2-AP 10^−5 M for 1 min; I pH 6.6; ASIC3:other subunit 1:3; n = 8
# Procedure: as §1, §2, §3
substance,measurement,setting,value
2-furoyl-LIGRLO-NH2 [PAR2-AP],maximum effect (potentiation of ASIC3 currents),"[1]; 10^−4 M, pre-applied 1 min, I pH 6.6, n = 9",66.6 ± 7.5%
same,increase of peak amplitude of I pH 6.6 after pretreatment with agonist alone,"[1]; 10^−5 M for 1 min, n = 10",61.6 ± 4.6%
same,EC50,"[1]; I pH 6.6 for 5 s, PAR2-AP 10^−9–10^−4 M pre-applied 1 min, −60 mV, mean ± SEM of 8 to 10 cells, read-out: EC50 of PAR2-AP for potentiation of peak amplitude of proton-gated (ASIC3) currents",290 nM
same,threshold pH value of proton concentration–response curve in presence vs absence of PAR2-AP,[1]; PAR2-AP 10^−5 M,no significant difference
same,increase in the maximal current response to protons,"[1]; PAR2-AP 10^−5 M pre-applied, proton concentration–response curve, 8 to 10 cells",58.7 ± 3.8%
same,Hill coefficient of proton concentration–response curve in the presence of PAR2-AP,"[1]; PAR2-AP 10^−5 M, 2.36 ± 0.13 in its absence, P > 0.1",2.28 ± 0.15
same,Hill coefficient of steady-state desensitization with PAR2-AP,"[1]; PAR2-AP 10^−5 M, 3.58 ± 0.29 without",3.65 ± 0.35
same,pH50 (pH for half-maximal current response) with PAR2-AP pretreatment,"[1]; PAR2-AP 10^−5 M, 6.70 ± 0.02 without, P > 0.1",6.71 ± 0.04
same,pH50 for steady-state desensitization in the presence of PAR2-AP,"[1]; PAR2-AP 10^−5 M, conditioning pH 7.6 to 6.6 for 2 min, then pH 6.0, 7.16 ± 0.01 without, P < 0.05, 6 to 8 cells",7.05 ± 0.02
same,Hill coefficient of the concentration–response curve for PAR2-AP,"[1]; potentiation of I pH 6.6, pre-applied 1 min",0.76
same,effect on I pH 6.6 in ASIC3-transfected CHO cells without PAR2,[2],Neither PAR2-AP nor trypsin had an effect
same,increase of peak current of heteromeric ASIC2b+3 channels,[3],68.1 ± 7.3%
same,increase of peak current of heteromeric ASIC1b+3 channels,[4],55.2 ± 5.9%
